Results on eleven compounds are retold here after ChEMBL document CHEMBL1201862, “PubChem BioAssay data set” (2004).

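Compound exposure: 48 hours, 5 concentrations, 96-well plates. Here, GI50 denotes the concentration required for 50% inhibition of growth.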 Activity calls are given as the source filed them. Cut-off read from the data, not from the text of the source: active = GI50 up to about 1.1 µM and inactive = higher. Peptide text beside a SMILES is read from it. * marks the point of attachment. Cbz = O=C(OCc1ccccc1)* A value given as a limit tells only on which side of the number the result lay.

Common to all, as to test: growth of human tumour cells (NCI), 48 h
Experiment [1] has as its system COLO 205.
The subject of experiment [2] is MDA-N.
The subject of experiment [3] is NCI-H522.
Experiment [4] relates to MDA-MB-435.
In experiment [5] the test system is NCI-H226.
Experiment [6] deals with Hs-578T.
Experiment [7] relates to NCI/ADR-RES.
Experiment [8] has as its system A549.
Experiment [9] relates to IGROV-1.
In experiment [10] the test system is UACC-257.
Experiment [11] deals with SR.
In experiment [12] the test system is BT-549.
For experiment [13], the system named is SW-620.
The test system of experiment [14] is SF-295.
The test system of experiment [15] is Malme-3M.
In experiment [16] the test system is SNB-19.
Experiment [17] deals with M14.
For experiment [18], the system named is HCT-15.
Experiment [19] has as its system UACC-62.
Experiment [20] deals with SF-268.

As to `Cc1c(C)c(S(=O)(=O)N(CCCCCN)OCCCN)c(C)c2c1OC(C)(C)CC2`, the GI50 in experiment [1] was 12.2 µM (inactive); in experiment [2], 4.73 µM (inactive); in experiment [3] it was 6.28 µM (inactive); in experiment [4], 5.82 µM (inactive); in [5] it was 8.89 µM (inactive); in experiment [6] it was 6.73 µM (inactive). Moreover, the GI50 is 20.6 µM (inactive) in experiment [7]; 16 µM (inactive) in [8]; 2.82 µM (inactive) in experiment [9]; 13.8 µM (inactive) in [10]; 1.61 µM (inactive) in [11]; 13.5 µM (inactive) in experiment [12]. Moreover, the GI50 in experiment [13] is 7.8 µM (inactive); in [14], 17.4 µM (inactive); in experiment [15], 14.3 µM (inactive); in experiment [16] it was 7.91 µM (inactive); in experiment [17], 27.7 µM (inactive); in experiment [18], 18.6 µM. The GI50 in experiment [19] was 12.9 µM (inactive); in experiment [20], 10 µM (inactive).

For `N#Cc1nc(CCCCCN2C(=O)c3ccccc3C2=O)oc1N`, the GI50 in experiment [1] is > 100 µM (inactive); in [2], > 100 µM (inactive); in [3] it was 4.84 µM (inactive); in [4], > 100 µM (inactive); in experiment [5] it was > 100 µM (inactive); in experiment [6], > 100 µM (inactive). For the same compound, the GI50 in [7] is > 100 µM (inactive); in experiment [8], > 100 µM (inactive); in experiment [9], > 100 µM (inactive); in experiment [10], > 100 µM (inactive); in experiment [11], > 100 µM (inactive); in [12], 25.7 µM (inactive). Moreover, the GI50 in [13] is > 100 µM (inactive); in experiment [14], > 100 µM (inactive); in [15], > 100 µM (inactive); in experiment [16], > 100 µM (inactive); in experiment [17], > 100 µM (inactive); in experiment [18] it was over 100 µM. Further, in experiment [20], the GI50 was > 100 µM (inactive).

Consider `O=c1c(SSc2coc3cc(F)ccc3c2=O)coc2cc(F)ccc12`, for which the GI50 is 17.4 µM (inactive) in experiment [1]; 13.5 µM (inactive) in experiment [2]; 20.7 µM (inactive) in [3]; 11.1 µM (inactive) in [4]; > 100 µM (inactive) in experiment [5]; 14.3 µM (inactive) in [6]. Moreover, the GI50 was 17.3 µM (inactive) in experiment [7]; 7.29 µM (inactive) in experiment [8]; 2.95 µM (inactive) in experiment [9]; 21.8 µM (inactive) in [10]; 31.3 µM (inactive) in experiment [11]; > 100 µM (inactive) in experiment [12]. The GI50 is 17.7 µM (inactive) in [13]; 6.68 µM (inactive) in experiment [14]; 29.6 µM (inactive) in [15]; 43.5 µM (inactive) in experiment [16]; 13.8 µM in [18]; 16.1 µM (inactive) in experiment [19]. For the same compound, the GI50 in [20] is 26.3 µM (inactive).

Turning to `Nc1nc(-c2ccccc2)c(CC(=O)O)s1`, the GI50 in experiment [1], in experiment [2], in [3], in [4], in experiment [5] and in experiment [6] was > 100 µM (inactive) in each case. Also, the GI50 in experiment [7], in experiment [8], in experiment [9], in experiment [10], in experiment [11] and in experiment [12] was > 100 µM (inactive) in each case. The GI50 in experiment [13] is > 100 µM (inactive); in experiment [14] it was > 100 µM (inactive); in [15], > 100 µM (inactive); in experiment [16], > 100 µM (inactive); in experiment [17], > 100 µM (inactive); in experiment [18] it was over 100 µM. Besides, the GI50 in experiment [19] and in [20] was > 100 µM (inactive) each time.

On to `C/C=C/[C@H](O[Si](C)(C)C(C)(C)C)[C@@H](O)/C=C/C(=O)OCC`, for which the GI50 in [1] was 20.1 µM (inactive); in [2] it was 19.6 µM (inactive); in experiment [3], 16.7 µM (inactive); in [4] it was 19.5 µM (inactive); in experiment [5], 29.4 µM (inactive); in [6], 29.9 µM (inactive). Besides, the GI50 in experiment [7] was 26.8 µM (inactive); in [8], 30.1 µM (inactive); in experiment [9], 22.8 µM (inactive); in experiment [10], 19 µM (inactive); in experiment [11], 21.1 µM (inactive); in [12], 31.8 µM (inactive). Further, the GI50 was 19.3 µM (inactive) in experiment [13]; 20.9 µM (inactive) in [14]; 14.7 µM (inactive) in experiment [15]; 14.3 µM (inactive) in experiment [16]; 14.4 µM in [18]; 18.8 µM (inactive) in experiment [19]. For the same compound, the GI50 in experiment [20] was 24 µM (inactive).

With `COc1cc2c(cc1OC)C(=O)/C(=C/c1ccccc1)CC2`, the GI50 in experiment [1] is 22.1 µM (inactive); in experiment [2] it was 12.4 µM (inactive); in [3], 52.6 µM (inactive); in experiment [4] it was 8.09 µM (inactive); in [5], 41.4 µM (inactive); in experiment [6], > 100 µM (inactive). In addition, the GI50 in experiment [7] was 17.3 µM (inactive); in experiment [8] it was 27.7 µM (inactive); in experiment [9] it was 38.9 µM (inactive); in [10], 61.2 µM (inactive); in experiment [11], 13.5 µM (inactive); in experiment [12] it was 12.5 µM (inactive). Also, the GI50 is 40.4 µM (inactive) in experiment [13]; 20.7 µM (inactive) in experiment [14]; > 100 µM (inactive) in experiment [15]; 27.7 µM (inactive) in experiment [16]; > 100 µM (inactive) in experiment [17]; 20.8 µM in experiment [18]. The GI50 in experiment [20] was 46.7 µM (inactive).

For the compound `CC(C)CCn1c(=O)c2c(=O)[nH][nH]c2c2ccccc21`, the GI50 in [1], in experiment [2], in [3], in [4], in [5] and in experiment [6] was > 100 µM (inactive) throughout. Moreover, the GI50 in experiment [7], in experiment [8], in experiment [9], in experiment [10], in [11] and in experiment [12] was > 100 µM (inactive) in each case. For the same compound, the GI50 in experiment [13] is > 100 µM (inactive); in [14], > 100 µM (inactive); in experiment [15], > 100 µM (inactive); in [16], > 100 µM (inactive); in [18], over 100 µM.

In the case of `CCOC(=O)C(C)NC(=O)C(C)NC(=O)C(C)NC(=O)C(C)NC(=O)C(C)NC(=O)C(C)NC(=O)C(C)NC(=O)OCc1ccccc1` (configuration not stated) (Cbz-AAAAAAA-OEt; configuration not given here), the GI50 in experiment [1], in experiment [2], in [3], in experiment [4], in [5] and in [6] was > 100 µM (inactive) each time. The GI50 in experiment [7], in [8], in experiment [9], in experiment [11], in experiment [12] and in experiment [13] was > 100 µM (inactive) each time. Moreover, the GI50 in [14] was > 100 µM (inactive); in [15], > 100 µM (inactive); in experiment [16], > 100 µM (inactive); in experiment [17], > 100 µM (inactive); in experiment [18], over 100 µM; in experiment [19] it was > 100 µM (inactive). In addition, the GI50 in experiment [20] is > 100 µM (inactive).

Consider `CC(=O)Oc1ccc2[nH]c3c(C)c4cccc-4ccc3c2c1`, for which the GI50 was 2.36 µM (inactive) in experiment [2]; 1.63 µM (inactive) in experiment [3]; 2 µM (inactive) in experiment [4]; 1.38 µM (inactive) in experiment [5]; 2.64 µM (inactive) in experiment [6]; 2.28 µM (inactive) in experiment [7]. The GI50 was 2.26 µM (inactive) in experiment [8]; 1.57 µM (inactive) in experiment [9]; 1.92 µM (inactive) in experiment [10]; 4.59 µM (inactive) in experiment [11]; 2.34 µM (inactive) in experiment [12]; 3.7 µM (inactive) in [13]. Moreover, the GI50 in experiment [14] is 2.02 µM (inactive); in experiment [15] it was 1.78 µM (inactive); in [16] it was 2.04 µM (inactive); in experiment [17] it was 2.17 µM (inactive); in [18] it was 2.24 µM; in [19], 1.81 µM (inactive). For the same compound, in [20], the GI50 was 2.02 µM (inactive).

As for `Nc1nc(Cl)c(Cl)c(NCC2(O)CCC2)n1`, the GI50 in experiment [2] is > 100 µM (inactive); in [3] it was 18.3 µM (inactive); in [4], 88.3 µM (inactive); in experiment [5], 23.6 µM (inactive); in experiment [6] it was 51.3 µM (inactive); in [7], 45 µM (inactive). Also, the GI50 is 76.4 µM (inactive) in experiment [8]; 45.6 µM (inactive) in experiment [9]; > 100 µM (inactive) in experiment [10]; 47.5 µM (inactive) in [11]; 44.6 µM (inactive) in experiment [12]; > 100 µM (inactive) in experiment [13]. Besides, the GI50 was 43.9 µM (inactive) in [14]; 62.7 µM (inactive) in [15]; > 100 µM (inactive) in experiment [16]; 38.9 µM in [18]; 36.2 µM (inactive) in experiment [19]; > 100 µM (inactive) in experiment [20].

For the compound `CC(=O)OCC1OC(SC2=N/C(=C\c3cc4c(=O)c5ccccc5sc4s3)C(=O)N2c2ccccc2)C(OC(C)=O)C(OC(C)=O)C1OC(C)=O` (configuration not stated), the GI50 in [1], in [2], in experiment [3], in experiment [4], in experiment [5] and in experiment [6] was > 100 µM (inactive) throughout. Also, the GI50 in experiment [7] is > 100 µM (inactive); in experiment [9], > 100 µM (inactive); in experiment [10] it was > 100 µM (inactive); in [11], 42.2 µM (inactive); in experiment [12], 63.8 µM (inactive); in experiment [13], 67.8 µM (inactive). The GI50 was > 100 µM (inactive) in experiment [14]; > 100 µM (inactive) in experiment [15]; 40.4 µM (inactive) in experiment [16]; over 100 µM in experiment [18]; > 100 µM (inactive) in experiment [19]; > 100 µM (inactive) in experiment [20].
